Test results reported in patent US20230079107A1, “COMPOSITIONS AND METHODS FOR THE TREATMENT OF HUMAN IMMUNODEFICIENCY VIRUS” (Cidara Therapeutics, Inc., priority 2019, published 2023).
Like-named read-outs stand apart in the source and are kept apart here.

Key:
Type in all cases: cell-based
[1] = in vitro; design: TC50: unit not given beside the values; settings: human
Experimental: (§1) In these studies, cytotoxicity was also evaluated (TC50). Test materials were derived by measuring the reduction of the tetrazolium dye XTT (2,3-bis(2-methoxy-4-nitro-5-sulfophenyl)-5-[(phenylamino)carbonyl]-2H-tetrazolium hydroxide). XTT in metabolically active cells is metabolized by the mitochondrial enzyme NADPH oxidase to a soluble formazan product. XTT solution was prepared daily as a stock of 1 mg/mL in RPMI-1640 without additives. Phenazine methosulfate (PMS) solution was prepared at 0.15 mg/mL in DPBS and stored in the dark at −20° C. XTT/PMS stock was prepared immediately before use by adding 40 μL of PMS per mL of XTT solution. 50 μL of XTT/PMS was added to each well of the plate and the plate incubated for 4 hours at 37° C. The 4 hour incubation has been empirically determined to be within the linear response range for XTT dye reduction with the indicated numbers of cells for each assay. The plates were sealed and inverted several times to mix the soluble formazan product and the plate was read at 450 nm (650 nm reference wavelength) with a Molecular Devices SpectraMax Plus 384 96 well plate format spectrophotometer.
as §1, with “Fifty L (50 μL)” for “50 μL”
as §1, with “studies” for “studies,”, “Fifty L (50 μL)” for “50 μL”
(§2) In these studies, cytotoxicity was also evaluated (TC50). Test materials were derived by measuring the reduction of the tetrazolium dye XTT (2,3-bis(2-methoxy-4-nitro-5-sulfophenyl)-5-[(phenylamino)carbonyl]-2H-tetrazolium hydroxide). XTT in metabolically active cells is metabolized by the mitochondrial enzyme NADPH oxidase to a soluble formazan product. XTT solution was prepared daily as a stock of 1 mg/mL in RPMI-1640 without additives.

[2] = target: cell-cell fusion of HeLa-CD4-LTR-β-Gal and HL2/3 cells mediated by gp120 and CD4 interaction (UniProt P04578)
[3] = test system: HeLa-CD4-LTR-β-Gal and HL2/3 cells (cell viability); test: in vitro; design: TC50: unit not given beside the values; settings: Example 36, Table 9, XTT
Experimental: as §1
as §1, with “Fifty L (50 μL)” for “50 μL”
as §1, with “studies” for “studies,”, “Fifty L (50 μL)” for “50 μL”
as §2

[4] = Example 11, Table 5, XTT, read-out: TC50 (the source's name)
[5] = Example 19, Table 6, Run 1, XTT, read-out: TC50 [μM] Run 1
[6] = Example 19, Table 6, Run 2, XTT, read-out: TC50 [μM] Run 2
[7] = Example 19, Table 6, Run 3, XTT, read-out: TC50 [μM] Run 3
[8] = Example 33, Table 7, XTT, read-out: TC50 (nM) (Tox)

## COc1cc(-c2ccc(/N=N/c3ccc4c(S(=O)(=O)O)cc(S(=O)(=O)O)c(N)c4c3O)c(OC)c2)ccc1/N=N/c1ccc2c(S(=O)(=O)O)cc(S(=O)(=O)O)c(N)c2c1O [CSB, Chicago Sky Blue, reference compound]
[1]; [4]
  CC50: > 10 µM
[1]; [5]
  CC50: > 10 µM
[1]; [6]
  CC50: > 10 µM
[1]; [7]
  CC50: > 10 µM
[1]; [8]
  CC50: > 10 µM

## C#CCOCCOCCOCCOCCNC(=O)c1nc(-c2ncc(OC)c3c(C(=O)C(=O)N4CCC(=C(C#N)c5ccccc5)CC4)c[nH]c23)cs1 [Int-1]
[1]; [4]
  CC50: > 10 µM
[1]; [5]
  CC50: > 10 µM

## C#CCOCCOCCOCCOCCNC(=O)c1ncn(-c2ncc(OC)c3c(C(=O)C(=O)N4CCC(=C(C#N)c5ccccc5)CC4)c[nH]c23)n1 [Int-2]
[1]; [6]
  CC50: > 10 µM
[1]; [7]
  CC50: > 10 µM
[2]
  fusion inhibition activity, in words: highly active

## C#CCOCCOCCNC(=N)NCCNC(=O)c1csc(-c2ncc(OC)c3c(C(=O)C(=O)N4CCC(=C(C#N)c5ccccc5)CC4)c[nH]c23)n1 [Int-3]
[1]; [4]
  CC50: > 10 µM
[1]; [5]
  CC50: > 10 µM

## C#CCOCCOCCOCCOCC(O)CNC(=O)c1nc(-c2ncc(OC)c3c(C(=O)C(=O)N4CCC(=C(C#N)c5ccccc5)CC4)c[nH]c23)cs1 (stereo not shown) [Int-4]
[1]; [6]
  CC50: > 10 µM
[2]
  fusion inhibition activity, in words: highly active

## C#CCOCCOCCOCCOCCNC(=O)COCc1ncn(-c2ncc(OC)c3c(C(=O)C(=O)N4CCN(C(=O)c5ccccc5)CC4)c[nH]c23)n1 [Int-5]
[1]; [4]
  CC50: > 0.5 µM
[1]; [5]
  CC50: > 0.5 µM

## COc1cnc(-n2cnc(COCC(=O)NCCOCCOCCOCCOCCOCCON)n2)c2[nH]cc(C(=O)C(=O)N3CCN(C(=O)c4ccccc4)CC3)c12 [Int-6]
[1]; [4]
  CC50: > 0.5 µM
[1]; [5]
  CC50: > 0.5 µM

## C#CCOCCOCCOCCOCCC(=O)NCc1ncn(-c2ncc(OC)c3c(C(=O)C(=O)N4CCN(C(=O)c5ccccc5)CC4)c[nH]c23)n1 [Int-7]
[1]; [4]
  CC50: > 0.5 µM
[1]; [5]
  CC50: > 0.5 µM

## C#CCOCCOCCOCCOCCOc1cnc(-n2cnc(C)n2)c2[nH]cc(C(=O)C(=O)N3CCN(C(=O)c4ccccc4)CC3)c12 [Int-8]
[1]; [4]
  CC50: > 10 µM
[1]; [5]
  CC50: > 10 µM

## C#CCOCCOCCOCCOCCNC(=O)c1csc(-c2ncc(OC)c3c(C(=O)C(=O)N4CCN(C(=O)c5ccccc5)CC4)c[nH]c23)n1 [Int-9]
[1]; [4]
  CC50: > 10 µM
[1]; [5]
  CC50: > 10 µM

## C#CCOCCOCCNC(=N)NCCNC(=O)c1csc(-c2ncc(OC)c3c(C(=O)C(=O)N4CCN(C(=O)c5ccccc5)CC4)c[nH]c23)n1 [Int-10]
[1]; [4]
  CC50: > 10 µM
[1]; [5]
  CC50: > 10 µM

## C#CCOCCOCCOCCC1CCN(CCNC(=O)c2ncn(-c3ncc(OC)c4c(C(=O)C(=O)N5CCC(=C(C#N)c6ccccc6)CC5)c[nH]c34)n2)CC1 [Int-11]
[1]; [5]
  CC50: > 10 µM

## C#CCOCCOCCOCCOCCC(=O)N(CCCNC(=O)CCOCCNC(=O)c1ncn(-c2ncc(OC)c3c(C(=O)C(=O)N4CCC(=C(C#N)c5ccccc5)CC4)c[nH]c23)n1)C(CO)(CO)CO [Int-12]
[1]; [7]
  CC50: > 10 µM

## C#CCOCCOCCOCCOCCNC(=O)c1cn(-c2ncc(OC)c3c(C(=O)C(=O)N4CCC(=C(C#N)c5ccccc5)CC4)c[nH]c23)nn1 [Int-13]
[1]; [7]
  CC50: > 10 µM

## C#CCOCCOCCOCCOCCC(=O)N[C@@H](CS(=O)(=O)O)C(=O)N1CCN(CCNC(=O)c2ncn(-c3ncc(OC)c4c(C(=O)C(=O)N5CCC(=C(C#N)c6ccccc6)CC5)c[nH]c34)n2)CC1 [Int-14]
[1]; [7]
  CC50: > 10 µM

## C#CCOCCOCCOCCOCCC(=O)N(CCCNC(=O)c1ncn(-c2ncc(OC)c3c(C(=O)C(=O)N4CCC(=C(C#N)c5ccccc5)CC4)c[nH]c23)n1)CCS(=O)(=O)O [Int-15]
[1]; [7]
  CC50: > 10 µM

## C#CCOCCOCCOCCOCCN1CCN(CCNC(=O)c2ncn(-c3ncc(OC)c4c(C(=O)C(=O)N5CCC(=C(C#N)c6ccccc6)CC5)c[nH]c34)n2)CC1 [Int-16]
[1]; [7]
  CC50: > 10 µM

## C#CCOCCOCCOCCOCCC(=O)N(CCCNC(=O)c1ncn(-c2ncc(OC)c3c(C(=O)C(=O)N4CCC(=C(C#N)c5ccccc5)CC4)c[nH]c23)n1)C(CO)(CO)CO [Int-17]
[1]; [7]
  CC50: > 10 µM
[1]; [8]
  CC50: > 0.5 µM

## C#CCOCCOCCOCCOCCN1CCN(CCCNC(=O)c2ncn(-c3ncc(OC)c4c(C(=O)C(=O)N5CCC(=C(C#N)c6ccccc6)CC5)c[nH]c34)n2)CC1 [Int-18]
[1]; [8]
  CC50: > 0.5 µM
[3]
  TC50: >2000

## C#CCOCCOCCOCCOCCN1CCN(CCCN2CCN(CCNC(=O)c3ncn(-c4ncc(OC)c5c(C(=O)C(=O)N6CCC(=C(C#N)c7ccccc7)CC6)c[nH]c45)n3)CC2)CC1 [Int-19]
[1]; [8]
  CC50: > 0.5 µM

## C#CCOCCOCCOCCOCCNC(=O)c1ncn(-c2ncc(OC)c3c(C(=O)C(=O)N4CCN(C(=O)c5ccccc5)CC4)c[nH]c23)n1 [Int-20]
[1]; [8]
  CC50: > 0.5 µM

## C#CCOCCOCCOCCOCCN1CCN(CCCN2CCN(CCCNC(=O)c3ncn(-c4ncc(OC)c5c(C(=O)C(=O)N6CCC(=C(C#N)c7ccccc7)CC6)c[nH]c45)n3)CC2)CC1 [Int-22]
[1]; [8]
  CC50: > 0.5 µM
[3]
  TC50: >2000

## C#CCOCCOCCOCCOCCC(=O)N(CC(=O)NCCOCCOCCOCCOCCOCCOCCOCCOCCOCCOCCOCCOC)CC(=O)NCCn1cc(COCCOCCOCCOCCNC(=O)c2ncn(-c3ncc(OC)c4c(C(=O)C(=O)N5CCC(=C(C#N)c6ccccc6)CC5)c[nH]c34)n2)nn1 [Int-25]
[1]; [8]
  CC50: > 0.5 µM
[3]
  TC50: >2000

## C#CCOCCOCCOCCOCCN(CCCO)CCCN(CCCO)CCCNC(=O)c1ncn(-c2ncc(OC)c3c(C(=O)C(=O)N4CCC(=C(C#N)c5ccccc5)CC4)c[nH]c23)n1 [Int-26]
[3]
  TC50: >2000

## C#CCOCCOCCOCCOCCN1CCN(CCCNC(=O)c2ncn(-c3ncc(OC)c4c(C(=O)C(=O)N5CCC(=C(C#N)c6ccccn6)CC5)c[nH]c34)n2)CC1 [Int-27]
[3]
  TC50: >2000

## enfuvirtide
[1]; [8]
  CC50: > 1 µM
[3]
  TC50: >1,000
